Assay [1] relates to LDLR gene expression. Description: Northern hybridization of RNA from the LDLR-luciferase knock-in HepG2 cell line. As to conditions: LDLR luciferase knock-in HepG2 cells. Format: cell-based, human. How it is done: The LDLR targeting construct was introduced into HepG2 cells by electroporation. Following recovery, the cells were maintained in media supplemented 1 mg/ml G418 and 2 uM gancyclovir for 3-4 weeks until individual colonies were observed. These […] isolated and propagated as individual cultures for further characterization. Individual clones were expanded into 24 well tissue culture plates, and genomic DNA was prepared and analyzed by restriction digestion and Southern hybridization. […] This clone was expanded for further characterization and use as a reporter cell line for LDLR gene expression. To determine whether the expression of luciferase gene is regulated as the same way as the endogenous LDLR gene, RNA was prepared and analyzed by Northern hybridization. […] The cholesterol-dependent regulation is the hallmark of LDLR gene expression. As indicated, the LDLR mRNA was regulated by in the presence or absence of cholesterol, albeit in this case the LDLR mRNA level was reduced to half due to the loss of one allele, which was replaced by the luciferase gene. The use of the luciferase knock-in cell line for LDLR gene expression was further validated by the luciferase activity, which was also regulated by cholesterol as predicted.

For assay [2], the system named is LDLR gene expression. Description: Luciferase activity of the LDLR-luciferase knock-in HepG2 cell line. The following applies: LDLR luciferase knock-in HepG2 cells. Type of assay: cell-based, human. As for the experimental part:
To determine whether the expression of luciferase gene is regulated as the same way as the endogenous LDLR gene, RNA was prepared and analyzed by Northern hybridization. […] The cholesterol-dependent regulation is the hallmark of LDLR gene expression. As indicated, the LDLR mRNA was regulated by in the presence or absence of cholesterol, albeit in this case the LDLR mRNA level was reduced to half due to the loss of one allele, which was replaced by the luciferase gene. The use of the luciferase knock-in cell line for LDLR gene expression was further validated by the luciferase activity, which was also regulated by cholesterol as predicted. • Aliquot 100 ul cell suspension (10^4–10^5 primary or cultured, differentiated cells) into each well of 96-well plate under sterile conditions • Add compound or extract to 10 uM final concentration • Incubate 6–18 hrs at 37° C. • Remove incubation media • Add 100 ul lysis/luciferin buffer containing 1.0% non-ionic detergent (Triton x-100), 530 uM ATP, 270 uM coA and 470 uM luciferin (Promega). • Measure luciferase-derived luminescence on automated Torcon AML-34 and 7710 Microplate Luminometer (Cambridge Technologies, Inc.) luminometers.

In the case of `C[C@H](CCCC(C)(C)O)[C@H]1CC[C@H]2[C@@H]3CC=C4C[C@@H](O)CC[C@]4(C)[C@H]3CC[C@]12C` [25-hydroxycholesterol], in the assay with LDLR gene expression [1] (compared with lipid-depleted media, where mRNA was elevated), the “luciferase mRNA” value was “suppressed”.
For the compound `CC(C)CCC[C@@H](C)[C@H]1CC[C@H]2[C@@H]3CC=C4C[C@@H](O)CC[C@]4(C)[C@H]3CC[C@]12C` [cholesterol], the luciferase activity result in the assay with LDLR gene expression [2] is given as “regulated”. In the assay on LDLR gene expression [1] (presence or absence of cholesterol), the “LDLR mRNA” value is recorded as “regulated”.

The values are drawn from US7105313B2, “Cell-based drug screens for regulators of gene expression” (Amgen Inc., priority 1996, dated 2006).
